The test system of test [1] is thapsigargin (Tg)-induced Ca^2+ entry (SOCE) in Jurkat, U937, Luva, RBL-2H3, HL-60 and HEK-293 cells. The test can be described thus: Thapsigargin-induced SOCE Fura-2 bioassay in various cell types (FIG. 1). It is filed as cell-based. Particulars: 1 μM, positive control, all tested cell types. The procedure: A Fura-2 calcium flux assay was used to determine cytoplasmic Ca^2+ levels. Briefly, cells were preloaded with Fura-2 AM, and fluorescence intensity in cells intensity was measured over time as a ratio of detected 510 nm fluorescent light emission intensity when excited by UV light at 340 nm and 380 nm wavelengths (f340/f380 ratio). Gadolinium (Gd^3+) is known to block SOCE at a concentration of 1 μM and was used at 1 μM as a positive control in these experiments (gray line).

The test system of the next test is UUO mice. Particulars: background statement; cited from earlier work.
The subject of the next test is kidney cell-line model. Particulars: background statement; cited from earlier work.
Test [2] has as its system SOCE in RBL-2H3 rat mast cells. The test can be described thus: SOCE Fura-2 bioassay in RBL-2H3 cells. To be noted: Rattus norvegicus, RBL-2H3, read-out: IC50 SOCE, purified cannabinoids, RBL-2H3; Table 5.
Method: (§1) Briefly, SOCE inhibition experiments were performed as described in Example 8, using each of the hemp extracts listed below and in Tables 6A and 6B at six concentrations each in each of the five cell types listed above to obtain dose response curves, as shown in FIGS. 11A-11SS. […] All data are averages of three independent runs±SEM. […] Hemp extracts used in FIGS. 11A-11SS are: Sour Space Candy (SSC), Hawaiian Haze (HH), Special Sauce (SS), Suver Haze (SH), White CBG (WCBG), Elektra (ELEK), Cherry Wine (CW), Lifter (LIF), Grape Soda (GS).
Another test deals with SOCE in Jurkat T cells. The experiment in a line: SOCE Fura-2 bioassay in Jurkat cells. It is filed as cell-based, human. Particulars: for IC50: Homo sapiens, read-out: IC50 SOCE, purified cannabinoids, Jurkat, Table 5; for combinatory effect on SOCE inhibition when paired with CBGA (isobolographic analysis): pairs expected to inhibit 50%, FIGS. 10A-10T.
Test [3] relates to SOCE in HEK-293 human embryonic kidney cells. The experiment in a line: SOCE Fura-2 bioassay in HEK293 cells. It is filed as cell-based. To be noted: for IC50: Homo sapiens, HEK293, read-out: IC50 SOCE, purified cannabinoids, HEK-293, Table 5.
Test [4] concerns SOCE in U937 human monocytes. The test can be described thus: SOCE Fura-2 bioassay in U937 cells. To be noted: Homo sapiens, U-937, read-out: IC50 SOCE, purified cannabinoids, U937; Table 5.
Method: as §1
The subject of test [5] is SOCE in THP-1 human monocytes. The experiment in a line: SOCE Fura-2 bioassay in THP-1 cells. Particulars: for IC50: Homo sapiens, THP-1, read-out: IC50 SOCE, purified cannabinoids.
Test [6] relates to SOCE in Luva human mast cells. The test can be described thus: SOCE Fura-2 bioassay in Luva cells. To be noted: Homo sapiens, Mast cell, read-out: IC50 SOCE, purified cannabinoids, Luva; Table 5.
Method: as §1

We go through 5 compounds from patent US20230091336A1, “CANNABINOID COMPOSITIONS” (priority 2020, published 2023).

SMILES strings stand for the structures.

`[Cl][Gd]([Cl])[Cl]` [Gd^3+, Gadolinium Chloride]: in test [1], the “effect on Tg-induced SOCE (f340/f380 ratio)” value is recorded as “inhibited SOCE”.

For the compound `c1ccc2c(c1)CCC[C@H]2Nc1nc2ccccc2[nH]1` [NS8593], the “progression of kidney damage and fibrosis in the UUO mouse model” value in the test with UUO mice was “ameliorates the progression of kidney damage and fibrosis”. For the same compound, the “cell proliferation in a kidney cell-line model” value with kidney cell-line model is “inhibit cell proliferation”.

One may read the IC50 as the concentration at which inhibition is half-maximal. Take `CCCCCc1cc2c(c(O)c1C(=O)O)-c1cc(C)ccc1C(C)(C)O2` [CBNA, 1-hydroxy-6,6,9-trimethyl-3-pentyl-6H-benzo[c]chromene-2-carboxylic acid]: the IC50 in test [2] is 22.5 µM; in the test with SOCE in Jurkat T cells, 0.99 µM; in test [3], 29.5 µM; in test [4], 19.2 µM; in test [5] it was 7.25 µM; in test [6], above 50 µM. Moreover, the “combinatory effect on SOCE inhibition when paired with CBGA (isobolographic analysis)” value was “Simple additive” with SOCE in Jurkat T cells and “sub-additive” in [5] (THP-1, pairs expected to inhibit 50%, FIGS. 10U-10Y).

For the compound `CCCCCc1cc(O)c2c(c1)O[C@]1(C)CC[C@@H]3C1[C@@H]2C3(C)C` (stereo partly drawn) [CBL, (1aS,1a1R,3aR,8bR)-1,1,3a-trimethyl-6-pentyl-1a,1a1,2,3,3a,8b-hexahydro-1H-4-oxabenzo[f]cyclobuta[cd]inden-8-ol], the concentration for half-maximal inhibition (IC50) (in test [2]; with SOCE in Jurkat T cells; in test [3]; in [4]; in test [5]; in test [6]) was above 50 µM throughout. Also, the “combinatory effect on SOCE inhibition when paired with CBGA (isobolographic analysis)” value with SOCE in Jurkat T cells is recorded as “Simple additive”.

Turning to `C=C(C)[C@@H]1CCC(C)=C[C@H]1c1c(O)cc(CCC)cc1O` [CBDV, (1′R,2′R)-5′-methyl-2′-(prop-1-en-2-yl)-4-propyl-1′,2′,3′,4′-tetrahydro-[1,1′-biphenyl]-2,6-diol], the IC50 was 30.2 µM in test [2]; 6 µM in the test on SOCE in Jurkat T cells; 17.8 µM in test [3]; 17.5 µM in test [4]; above 50 µM in test [5]; 0.17 µM in test [6]. In the test on SOCE in Jurkat T cells, the “combinatory effect on SOCE inhibition when paired with CBGA (isobolographic analysis)” value was “sub-additive”. The “inhibitory effect in immune cells compared with non-immune HEK293 cells” value in [3] (10 μM, HEK293 (FIG. 8) vs immune cells) is “selective”.
